Consider two molecules from US8883743B2, “Methods for treating obesity employing an SGLT2 inhibitor” (AstraZeneca AB, priority 2007, dated 2014).

Test [1] can be described thus: Chronic weight loss study in diet-induced obese (DIO) rats. It is filed as in vivo, rat. On the procedure:
DIO rats were sorted into treatment groups based on body weight, total kilocalories consumed, and body composition (via echo MRI). […] To assess the importance of compensatory over-eating in drug-treated animals, a subgroup of rats that received 5 mg/kg of dapagliflozin was restricted to the food intake of the placebo group. Body weight and the weight of both diets were determined daily. Respiratory quotient data were obtained on days 2 and 15 of the study, echo MRI was obtained on day 22, and blood was collected for a fasting clinical chemistry tests on day 27.
Percent weight changes were calculated as […].
The weight loss study with Compound IIIA (0.1, 0.3, 1, and 3 mg/kg) was performed using the same methods as the Dapagliflozin study.

How the values of test [2] were obtained:
Patients with type 2 diabetes were treated with placebo, 5 mg dapagliflozin propylene glycol, 25 mg dapagliflozin propylene glycol, or 100 mg dapagliflozin propylene glycol.

Test [3] is described as follows: 12-week once-daily oral treatment of treatment naive type II diabetes mellitus patients (glucosuria, body weight, BMI). It is filed as in vivo, human. As to conditions: type II diabetic patients, each dose group, 12 weeks. The procedure: Treatment naive type II diabetes mellitus patients, n=389, with inadequate blood glycemic control and low mean glucosuria at baseline were given once-daily oral treatments with dapagliflozin (2.5, 5, 10, 20, or 50 mgs), metformin XR® (750 mg titrated to 1500 mgs), or placebo over 12-weeks.

With `CCc1ccc(Cc2cc([C@@H]3O[C@H](CO)[C@@H](O)[C@H](O)[C@H]3O)ccc2Cl)cc1` [Compound IIIA, (2S,3R,4R,5S,6R)-2-(4-chloro-3-(4-ethylbenzyl)phenyl)-6-(hydroxymethyl)tetrahydro-2H-pyran-3,4,5-triol], the weight loss entry in test [1] (DIO rats, 0.1, 0.3, 1 and 3 mg/kg daily over 25 days (FIG. 5)) was “significant weight loss in diet-induced obese rats in a dose proportional manner”.

As for `CCOc1ccc(Cc2cc([C@@H]3O[C@H](CO)[C@@H](O)[C@H](O)[C@H]3O)ccc2Cl)cc1` [Dapagliflozin-PGS, dapagliflozin propylene glycol hydrate], the “weight loss when compound-induced overeating was prevented (pair fed to vehicle group)” value in test [1] (DIO rats, 5 mg/kg subgroup restricted to food intake of placebo group (FIG. 4)) is given as “weight loss was greater”. Besides, in test [1] (DIO rats, oral 0.5, 1 and 5 mpk daily over 25 days, p<0.05 (FIG. 4)), the “weight loss versus vehicle” value is on record as “significant weight loss”. Besides, the “glucosuric effects: loss of calories in the urine (glucose excretion/day)” value in test [2] (healthy subjects, single doses 5, 20, 50 or 100 mg, indirect comparison versus GSK 869,682 (FIG. 1)) was “significant loss of calories in the urine”. In test [2] (subjects with type 2 diabetes, 5 mg, 25 mg and 100 mg, 14-day study (FIG. 2)), the “24-hour urine glucose excretion compared to placebo” value was “significantly higher urine glucose excretion”. In addition, the “proportion of patients achieving a 5% weight reduction versus placebo” value in test [3] was “higher proportion”.
